# Measurements from patent US11793849B2, “Method of Chinese herbal medicine extract used for treating multiple diseases caused by drug resistant bacteria infection” (priority 2016, dated 2023).
# Read-outs that look alike come from different tables or passages of the source.
# Key:
# ATCC27853 = assay: MIC determination, control strain; format: cell-based
# MDRPA = assay: Checkerboard assay (combined-use MIC, FIC); format: cell-based, Pseudomonas aeruginosa; details: for FIC, all strains / MIC50 of the antibiotic after combined use / MIC90 of the antibiotic after combined use / reduction of the antibiotic's MIC50 vs single use / reduction of the antibiotic's MIC90 vs single use / share of strains with FIC ≤ 0.5: 20 MDRPAs
# Method: Test methods of the sensibilization effects of the test product to similar antibiotics: it is operated by referring to a checkerboard assay recommended by NCCLS.
# The checkerboard assay is performed in a 96-pore sterile culture plate.
# Calculation of a Fractional Inhibitory Concentration (FIC): FIC=S20b combined-use MIC/S20b single-use MIC+antibiotic combined-use MIC/antibiotic single-use MIC. By calculating the FIC, the combined antibacterial interaction between the EA and the antibiotic is evaluated, with synergistic effect for FIC≤0.5, additive effect for 0.5<FIC≤1, indifferent effect for 1<FIC≤2 and antagonistic effect for FIC>2. According to a sterile growth pore, the optimum concentration ratio between the EA and the antibiotic is founded out. At last, the effect of the EA to strengthen the efficacy of the antibiotic is evaluated.
# [1] = EA=P. clypearia 10% ethanol extract, read-out: MIC (single use)
# [2] = EA=P. clypearia water extract, read-out: MIC (single use)
# [3] = single use, EA = 60% ethanol extract, read-out: MIC
# [4] = single use, EA = 95% ethanol extract, read-out: MIC
# [5] = antibiotic with 10% ethanol extract
# [6] = antibiotic with 60% ethanol extract
# [7] = antibiotic with 95% ethanol extract
# [8] = antibiotic with EA (water extract)
compound,measurement,setting,value
"CCN1CCN(C(=O)N[C@@H](C(=O)N[C@@H]2C(=O)N3C(C(=O)O)=C(CSc4nnnn4C)CS[C@H]23)c2ccc(O)cc2)C(=O)C1=O [CFP, Cefoperazone]",MIC,ATCC27853; [1],8 µg/mL
same,MIC,ATCC27853; [2],8 µg/mL
same,MIC,ATCC27853; [3],8 µg/mL
same,MIC,ATCC27853; [4],8 µg/mL
same,"FIC, all strains",MDRPA; [5],≤ 2
same,MIC50 of the antibiotic after combined use,MDRPA; [5],4 µg/mL
same,MIC90 of the antibiotic after combined use,MDRPA; [5],256 µg/mL
same,reduction of the antibiotic's MIC50 vs single use,MDRPA; [5],93.75%
same,reduction of the antibiotic's MIC90 vs single use,MDRPA; [5],50%
same,share of strains with FIC ≤ 0.5,MDRPA; [5],35%
same,"FIC, all strains",MDRPA; [6],≤ 2
same,MIC50 of the antibiotic after combined use,MDRPA; [6],4 µg/mL
same,MIC90 of the antibiotic after combined use,MDRPA; [6],256 µg/mL
same,reduction of the antibiotic's MIC50 vs single use,MDRPA; [6],93.75%
same,reduction of the antibiotic's MIC90 vs single use,MDRPA; [6],50%
same,share of strains with FIC ≤ 0.5,MDRPA; [6],20%
same,"FIC, all strains",MDRPA; [7],≤ 2
same,MIC50 of the antibiotic after combined use,MDRPA; [7],4 µg/mL
same,MIC90 of the antibiotic after combined use,MDRPA; [7],128 µg/mL
same,reduction of the antibiotic's MIC50 vs single use,MDRPA; [7],93.75%
same,reduction of the antibiotic's MIC90 vs single use,MDRPA; [7],75%
same,share of strains with FIC ≤ 0.5,MDRPA; [7],40%
same,"FIC, all strains",MDRPA; [8],≤ 2
same,MIC50 of the antibiotic after combined use,MDRPA; [8],0.5 µg/mL
same,MIC90 of the antibiotic after combined use,MDRPA; [8],256 µg/mL
same,reduction of the antibiotic's MIC50 vs single use,MDRPA; [8],99.2%
same,reduction of the antibiotic's MIC90 vs single use,MDRPA; [8],50%
same,share of strains with FIC ≤ 0.5,MDRPA; [8],35%
same,combined-use MIC,"MDRPA; strain P1, EA (P. clypearia 10% ethanol extract) combined with CFP",32 µg/mL
same,combined-use MIC,"MDRPA; strain P1, EA (P. clypearia water extract) combined with CFP",32 µg/mL
same,combined-use MIC,"MDRPA; strain P2, EA (P. clypearia 10% ethanol extract) combined with CFP",128 µg/mL
same,combined-use MIC,"MDRPA; strain P2, EA (P. clypearia water extract) combined with CFP",128 µg/mL
same,combined-use MIC,"MDRPA; strain P3, EA (P. clypearia 10% ethanol extract) combined with CFP",2 µg/mL
same,combined-use MIC,"MDRPA; strain P3, EA (P. clypearia water extract) combined with CFP",2 µg/mL
same,combined-use MIC,"MDRPA; strain P4, EA (P. clypearia 10% ethanol extract) combined with CFP",4 µg/mL
same,combined-use MIC,"MDRPA; strain P4, EA (P. clypearia water extract) combined with CFP",4 µg/mL
same,combined-use MIC,"MDRPA; strain P5, EA (P. clypearia 10% ethanol extract) combined with CFP",256 µg/mL
same,combined-use MIC,"MDRPA; strain P5, EA (P. clypearia water extract) combined with CFP",256 µg/mL
same,combined-use MIC,"MDRPA; strain P6, EA (P. clypearia 10% ethanol extract) combined with CFP",256 µg/mL
same,combined-use MIC,"MDRPA; strain P6, EA (P. clypearia water extract) combined with CFP",256 µg/mL
same,combined-use MIC,"MDRPA; strain P7, EA (P. clypearia 10% ethanol extract) combined with CFP",8 µg/mL
same,combined-use MIC,"MDRPA; strain P7, EA (P. clypearia water extract) combined with CFP",16 µg/mL
same,combined-use MIC,"MDRPA; strain P8, EA (P. clypearia 10% ethanol extract) combined with CFP",0.5 µg/mL
same,combined-use MIC,"MDRPA; strain P8, EA (P. clypearia water extract) combined with CFP",0.5 µg/mL
same,combined-use MIC,"MDRPA; strain P9, EA (P. clypearia 10% ethanol extract) combined with CFP",32 µg/mL
same,combined-use MIC,"MDRPA; strain P9, EA (P. clypearia water extract) combined with CFP",32 µg/mL
same,combined-use MIC,"MDRPA; strain P10, EA (P. clypearia 10% ethanol extract) combined with CFP",2 µg/mL
same,combined-use MIC,"MDRPA; strain P10, EA (P. clypearia water extract) combined with CFP",0.5 µg/mL
same,combined-use MIC,"MDRPA; strain P11, EA (P. clypearia 10% ethanol extract) combined with CFP",4 µg/mL
same,combined-use MIC,"MDRPA; strain P11, EA (P. clypearia water extract) combined with CFP",4 µg/mL
same,combined-use MIC,"MDRPA; strain P12, EA (P. clypearia 10% ethanol extract) combined with CFP",2 µg/mL
same,combined-use MIC,"MDRPA; strain P12, EA (P. clypearia water extract) combined with CFP",0.5 µg/mL
same,combined-use MIC,"MDRPA; strain P13, EA (P. clypearia 10% ethanol extract) combined with CFP",32 µg/mL
same,combined-use MIC,"MDRPA; strain P13, EA (P. clypearia water extract) combined with CFP",32 µg/mL
same,combined-use MIC,"MDRPA; strain P14, EA (P. clypearia 10% ethanol extract) combined with CFP",0.25 µg/mL
same,combined-use MIC,"MDRPA; strain P14, EA (P. clypearia water extract) combined with CFP",0.5 µg/mL
same,combined-use MIC,"MDRPA; strain P15, EA (P. clypearia 10% ethanol extract) combined with CFP",8 µg/mL
same,combined-use MIC,"MDRPA; strain P15, EA (P. clypearia water extract) combined with CFP",16 µg/mL
same,combined-use MIC,"MDRPA; strain P16, EA (P. clypearia 10% ethanol extract) combined with CFP",256 µg/mL
same,combined-use MIC,"MDRPA; strain P16, EA (P. clypearia water extract) combined with CFP",256 µg/mL
same,combined-use MIC,"MDRPA; strain P17, EA (P. clypearia 10% ethanol extract) combined with CFP",0.5 µg/mL
same,combined-use MIC,"MDRPA; strain P17, EA (P. clypearia water extract) combined with CFP",0.5 µg/mL
same,combined-use MIC,"MDRPA; strain P18, EA (P. clypearia 10% ethanol extract) combined with CFP",128 µg/mL
same,combined-use MIC,"MDRPA; strain P18, EA (P. clypearia water extract) combined with CFP",128 µg/mL
same,combined-use MIC,"MDRPA; strain P19, EA (P. clypearia 10% ethanol extract) combined with CFP",0.5 µg/mL
same,combined-use MIC,"MDRPA; strain P19, EA (P. clypearia water extract) combined with CFP",0.5 µg/mL
same,combined-use MIC,"MDRPA; strain P20, EA (P. clypearia 10% ethanol extract) combined with CFP",1 µg/mL
same,combined-use MIC,"MDRPA; strain P20, EA (P. clypearia water extract) combined with CFP",0.5 µg/mL
"NCC[C@H](O)C(=O)N[C@@H]1C[C@H](N)[C@@H](O[C@H]2O[C@H](CN)[C@@H](O)[C@H](O)[C@H]2O)[C@H](O)[C@H]1O[C@H]1O[C@H](CO)[C@@H](O)[C@H](N)[C@H]1O [AMK, Amikacin]",MIC,ATCC27853; [1],2 µg/mL
same,MIC,ATCC27853; [2],2 µg/mL
same,MIC,ATCC27853; [3],2 µg/mL
same,MIC,ATCC27853; [4],2 µg/mL
same,"FIC, all strains",MDRPA; [5],≤ 2
same,MIC50 of the antibiotic after combined use,MDRPA; [5],0.0625 µg/mL
same,MIC90 of the antibiotic after combined use,MDRPA; [5],4 µg/mL
same,reduction of the antibiotic's MIC50 vs single use,MDRPA; [5],93.75%
same,reduction of the antibiotic's MIC90 vs single use,MDRPA; [5],87.5%
same,share of strains with FIC ≤ 0.5,MDRPA; [5],30%
same,"FIC, all strains",MDRPA; [6],≤ 2
same,MIC50 of the antibiotic after combined use,MDRPA; [6],0.0625 µg/mL
same,MIC90 of the antibiotic after combined use,MDRPA; [6],2 µg/mL
same,reduction of the antibiotic's MIC50 vs single use,MDRPA; [6],93.75%
same,reduction of the antibiotic's MIC90 vs single use,MDRPA; [6],93.75%
same,share of strains with FIC ≤ 0.5,MDRPA; [6],20%
same,"FIC, all strains",MDRPA; [7],≤ 2
same,MIC50 of the antibiotic after combined use,MDRPA; [7],0.12 µg/mL
same,MIC90 of the antibiotic after combined use,MDRPA; [7],4 µg/mL
same,reduction of the antibiotic's MIC50 vs single use,MDRPA; [7],87.5%
same,reduction of the antibiotic's MIC90 vs single use,MDRPA; [7],87.5%
same,share of strains with FIC ≤ 0.5,MDRPA; [7],40%
same,"FIC, all strains",MDRPA; [8],≤ 2
same,MIC50 of the antibiotic after combined use,MDRPA; [8],0.0625 µg/mL
same,MIC90 of the antibiotic after combined use,MDRPA; [8],2 µg/mL
same,reduction of the antibiotic's MIC50 vs single use,MDRPA; [8],93.75%
same,reduction of the antibiotic's MIC90 vs single use,MDRPA; [8],93.75%
same,share of strains with FIC ≤ 0.5,MDRPA; [8],35%
same,combined-use MIC,"MDRPA; strain P1, EA (P. clypearia water extract) combined with AMK",0.0625 µg/mL
same,combined-use MIC,"MDRPA; strain P2, EA (P. clypearia water extract) combined with AMK",0.0625 µg/mL
same,combined-use MIC,"MDRPA; strain P3, EA (P. clypearia water extract) combined with AMK",1 µg/mL
same,combined-use MIC,"MDRPA; strain P4, EA (P. clypearia water extract) combined with AMK",0.5 µg/mL
same,combined-use MIC,"MDRPA; strain P5, EA (P. clypearia water extract) combined with AMK",0.0625 µg/mL
same,combined-use MIC,"MDRPA; strain P6, EA (P. clypearia water extract) combined with AMK",64 µg/mL
same,combined-use MIC,"MDRPA; strain P7, EA (P. clypearia water extract) combined with AMK",0.0625 µg/mL
same,combined-use MIC,"MDRPA; strain P8, EA (P. clypearia water extract) combined with AMK",0.5 µg/mL
same,combined-use MIC,"MDRPA; strain P9, EA (P. clypearia water extract) combined with AMK",0.0625 µg/mL
same,combined-use MIC,"MDRPA; strain P10, EA (P. clypearia water extract) combined with AMK",1 µg/mL
same,combined-use MIC,"MDRPA; strain P11, EA (P. clypearia water extract) combined with AMK",0.5 µg/mL
same,combined-use MIC,"MDRPA; strain P12, EA (P. clypearia water extract) combined with AMK",8 µg/mL
same,combined-use MIC,"MDRPA; strain P13, EA (P. clypearia water extract) combined with AMK",0.0625 µg/mL
same,combined-use MIC,"MDRPA; strain P14, EA (P. clypearia water extract) combined with AMK",0.0625 µg/mL
same,combined-use MIC,"MDRPA; strain P15, EA (P. clypearia water extract) combined with AMK",0.0625 µg/mL
same,combined-use MIC,"MDRPA; strain P16, EA (P. clypearia water extract) combined with AMK",0.0625 µg/mL
same,combined-use MIC,"MDRPA; strain P17, EA (P. clypearia water extract) combined with AMK",0.0625 µg/mL
same,combined-use MIC,"MDRPA; strain P18, EA (P. clypearia water extract) combined with AMK",4 µg/mL
same,combined-use MIC,"MDRPA; strain P19, EA (P. clypearia water extract) combined with AMK",0.0625 µg/mL
same,combined-use MIC,"MDRPA; strain P20, EA (P. clypearia water extract) combined with AMK",1 µg/mL
